Assay results: patent publication US8664257B2, “Oxygen-substituted 3-heteroaroylamino-propionic acid derivatives and their use as pharmaceuticals” (Sanofi, priority 2010, dated 2014)
Where two headings read alike, the source gives them in different places. One block for each compound: values may come before it.

Target: T1, Recombinant human cathepsin A (Homo sapiens, UniProt P10619)
T1 construct: Recombinant human cathepsin A (residues 29-480, with a C-terminal 10-His tag); 10-His (C); purchased R&D Systems 1049-SE
T1 sequence (P10619 29-312 limits assumed): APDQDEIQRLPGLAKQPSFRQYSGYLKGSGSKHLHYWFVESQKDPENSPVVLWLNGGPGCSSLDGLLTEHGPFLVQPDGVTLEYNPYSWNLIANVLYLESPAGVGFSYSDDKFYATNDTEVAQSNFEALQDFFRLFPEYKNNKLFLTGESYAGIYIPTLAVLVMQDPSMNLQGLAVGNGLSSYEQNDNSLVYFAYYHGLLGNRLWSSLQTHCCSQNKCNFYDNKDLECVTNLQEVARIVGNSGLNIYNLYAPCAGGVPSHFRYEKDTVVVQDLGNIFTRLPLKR
T1 sequence (P10619 327-480 limits assumed): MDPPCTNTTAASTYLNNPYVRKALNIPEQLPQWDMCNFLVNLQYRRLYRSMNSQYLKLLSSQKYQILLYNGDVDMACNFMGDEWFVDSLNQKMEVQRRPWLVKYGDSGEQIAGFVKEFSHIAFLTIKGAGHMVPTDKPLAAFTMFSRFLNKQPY
Test: Cathepsin A inhibitory activity
Format: biochemical
Outline: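 Read-out was microfluidic separation of cleaved vs. uncleaved Bodipy FL-bradykinin (2 μM), giving turnover, % inhibition and IC50. Compound and 833 ng/ml enzyme met for 15 min RT in pH 5.5 MES/DTT before substrate (15 min RT). The 29-480 His-tagged human enzyme was first activated by cathepsin L, then E-64 (10 μM).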

[1] = read-out: Activity (2): Cathepsin A inhibitory activity (IC50 class)
[2] = read-out: Activity (2): Cathepsin A inhibitory activity, IC50 class
[3] = recombinant human cathepsin A, read-out: Activity (2): Cathepsin A inhibitory activity, IC50 class
[4] = pharmacological test "Cathepsin A inhibitory activity", IC50 given as class A/B/C, read-out: Activity (2): Cathepsin A inhibitory activity, IC50 class
[5] = recombinant human cathepsin A 833 ng/ml, Bodipy FL-labeled bradykinin 2 μM, pH 5.5, read-out: CATH-A IC50

SMILES: COc1cc(C(=O)NC(CC(=O)O)c2cccc(F)c2C)nn1-c1ccccc1F (stereo not drawn) [Example 664]
IC50 [1]: < 100 nM

SMILES: Cc1ccc(C)c(-n2nc(C(=O)NC(CC(=O)O)c3ccccc3C)cc2O)c1 (stereo not drawn) [Example 40]
IC50 [2]: 100 to 1000 nM

SMILES: CC(C)[C@](C)(O)COc1cc(C(=O)N[C@@H](CC(=O)O)c2cccc(Cl)c2)nn1-c1ccccc1F [Example 877, (S)-3-(3-Chloro-phenyl)-3-{[1-(2-fluoro-phenyl)-5-((S)-2-hydroxy-2,3-dimethyl-butoxy)-1H-pyrazole-3-carbonyl]-amino}-propionic acid]
IC50 [2]: 100 to 1000 nM

SMILES: O=C(O)C[C@H](NC(=O)c1cc(O)n(-c2cccc(F)c2)n1)c1cccc(Cl)c1Cl [Example 428]
IC50 [3]: 100 to 1000 nM

SMILES: CC(C)(C)[C@H](O)COc1cc(C(=O)N[C@@H](CC(=O)O)c2cccc(Cl)c2)nn1-c1ccccc1F [Example 809, (S)-3-(3-Chloro-phenyl)-3-{[1-(2-fluoro-phenyl)-5-((S)-2-hydroxy-3,3-dimethyl-butoxy)-1H-pyrazole-3-carbonyl]-amino}-propionic acid]
IC50 [2]: < 100 nM

SMILES: COc1ccccc1[C@H](CC(=O)O)NC(=O)c1cc(O)n(-c2ccccc2)n1 [Example 100]
IC50 [2]: 100 to 1000 nM

SMILES: CC(C)[C@](C)(O)COc1cc(C(=O)NC2(CC(=O)O)CCCC2)nn1-c1ccccc1F [Example 825, (1-{[1-(2-Fluoro-phenyl)-5-((S)-2-hydroxy-2,3-dimethyl-butoxy)-1H-pyrazole-3-carbonyl]-amino}-cyclopentyl)-acetic acid]
IC50 [2]: 100 to 1000 nM

SMILES: O=C(O)C[C@H](NC(=O)c1cc(O)n(-c2ccccc2)n1)c1ccc(Cl)cc1Cl [Example 95]
IC50 [2]: 100 to 1000 nM

SMILES: Cc1ccccc1[C@H](CC(=O)O)NC(=O)c1cc(OCC(=O)N(C)C)n(-c2ccccc2F)n1 [Example 615]
IC50 [1]: < 100 nM

SMILES: O=C(O)C[C@H](NC(=O)c1cc(O)n(-c2cccc(Cl)c2)n1)c1cccnc1 [Example 268]
IC50 [4]: 1000 to 30000 nM

SMILES: COc1cc(C(=O)NC(CC(=O)O)c2ccc(-c3ccc(F)cc3)cc2)nn1-c1ccccc1 (stereo not drawn) [Example 544]
IC50 [1]: 1000 to 30000 nM

SMILES: CC(C)[C@@](C)(O)COc1cc(C(=O)N[C@@H](CC(=O)O)c2ccc(F)cc2)nn1-c1ccccc1F [Example 768, (S)-3-(4-Fluoro-phenyl)-3-{[1-(2-fluoro-phenyl)-5-((R)-2-hydroxy-2,3-dimethyl-butoxy)-1H-pyrazole-3-carbonyl]-amino}-propionic acid]
IC50 [1]: < 100 nM | IC50 [5]: 1.15 nM

SMILES: COc1cc(-c2ccccc2)ccc1C(CC(=O)O)NC(=O)c1cc(O)n(-c2ccccc2Cl)n1 (stereo not drawn) [Example 558, 3-{[1-(2-Chloro-phenyl)-5-hydroxy-1H-pyrazole-3-carbonyl]-amino}-3-(3-methoxy-biphenyl-4-yl)-propionic acid]
IC50 [1]: 100 to 1000 nM | IC50 [5]: 699 nM

SMILES: COc1cc(C(=O)NC(CC(=O)O)c2ccc(F)cc2C)nn1-c1ccccc1F (stereo not drawn) [Example 677]
IC50 [1]: < 100 nM

SMILES: Cc1ccccc1[C@H](CC(=O)O)NC(=O)c1cc(OC(=O)N2CCCCC2)n(-c2ccccc2F)n1 [Example 619]
IC50 [1]: < 100 nM

SMILES: O=C(O)CC(NC(=O)c1cc(O)n(-c2cccc(Cl)c2)n1)c1ccc(-c2ccc(F)cc2)cc1 (stereo not drawn) [Example 267]
IC50 [4]: 1000 to 30000 nM

SMILES: Cc1ccc(C)c(C(CC(=O)O)NC(=O)c2cc(O)n(-c3ccccc3)n2)c1 (stereo not drawn) [Example 378]
IC50 [2]: 100 to 1000 nM

SMILES: Cc1ccc([C@H](CC(=O)O)NC(=O)c2cc(OCC(C)(O)C(C)C)n(-c3ccccc3F)n2)cc1 (stereo partly drawn) [Example 787, (S)-3-{[1-(2-Fluoro-phenyl)-5-(2-hydroxy-2,3-dimethyl-butoxy)-1H-pyrazole-3-carbonyl]-amino}-3-p-tolyl-propionic acid]
IC50 [1]: < 100 nM

SMILES: O=C(O)CC(NC(=O)c1cc(O)n(-c2cccc(Cl)c2)n1)c1cccc(C(F)(F)F)c1Cl (stereo not drawn) [Example 263]
IC50 [4]: 100 to 1000 nM

SMILES: COc1ccc([C@H](CC(=O)O)NC(=O)c2cc(O)n(-c3ccccc3)n2)cn1 [Example 144]
IC50 [4]: 100 to 1000 nM

SMILES: COc1cc(C(=O)N[C@@H](CC(=O)Nc2cc(C)on2)c2ccccc2C)nn1-c1ccccc1F [Example 932, 1-(2-Fluoro-phenyl)-5-methoxy-1H-pyrazole-3-carboxylic acid [(S)-2-(5-methyl-isoxazol-3-ylcarbamoyl)-1-o-tolyl-ethyl]-amide]
IC50 [3]: 100 to 1000 nM

SMILES: O=C(O)CC(NC(=O)c1cc(O)n(-c2ccc(Cl)cc2)n1)c1cccc2c1OC(F)(F)O2 (stereo not drawn) [Example 471, 3-{[1-(4-Chloro-phenyl)-5-hydroxy-1H-pyrazole-3-carbonyl]-amino}-3-(2,2-difluoro-benzo[1,3]dioxol-4-yl)-propionic acid]
IC50 [5]: 486 nM | IC50 [3]: 100 to 1000 nM

SMILES: O=C(O)CC(NC(=O)c1cc(O)n(-c2ccc(F)cc2F)n1)c1ccc(-c2ccc(F)cc2)cc1 (stereo not drawn) [Example 202]
IC50 [4]: 100 to 1000 nM

SMILES: Cc1cccc(C(CC(=O)O)NC(=O)c2cc(OCC3CC3)n(-c3ccccc3F)n2)c1C (stereo not drawn) [Example 703]
IC50 [1]: < 100 nM

SMILES: COc1cc(C(=O)N[C@@H](CC(=O)NCc2ccno2)c2ccccc2C)nn1-c1ccccc1F [Example 934, 1-(2-Fluoro-phenyl)-5-methoxy-1H-pyrazole-3-carboxylic acid {(S)-2-[(isoxazol-5-ylmethyl)-carbamoyl]-1-o-tolyl-ethyl}-amide]
IC50 [3]: < 100 nM

SMILES: Cc1cccc(C(CC(=O)O)NC(=O)c2cc(O)n(-c3ccc(F)cc3)n2)c1C (stereo not drawn) [Example 358]
IC50 [2]: 100 to 1000 nM

SMILES: Cc1cccc(C(CC(=O)O)NC(=O)c2cc(O)n(-c3ccc(Cl)cc3)n2)c1C (stereo not drawn) [Example 287]
IC50 [2]: 100 to 1000 nM

SMILES: COc1ccc(C(CC(=O)O)NC(=O)c2cc(O)n(-c3ccc(F)cc3F)n2)c(C)c1 (stereo not drawn) [Example 379]
IC50 [2]: 100 to 1000 nM

The remaining lines, values ahead:

IC50 [2]: 100 to 1000 nM
SMILES: O=C(O)CC(NC(=O)c1cc(O)n(-c2ccccc2)n1)c1ccc(-c2ccc(F)cc2)cc1 (stereo not drawn) [Example 104]

IC50 [2]: < 100 nM
SMILES: O=C(O)C[C@H](NC(=O)c1cc(O)n(-c2ccccc2F)n1)c1cccc(Cl)c1Cl [Example 399]

IC50 [4]: 100 to 1000 nM
SMILES: COc1cccc(-c2ccc(C(CC(=O)O)NC(=O)c3cc(O)n(-c4ccccc4Cl)n3)cc2)c1 (stereo not drawn) [Example 157]

IC50 [3]: 100 to 1000 nM
SMILES: Cc1ccc(C)c(C(CC(=O)O)NC(=O)c2cc(O)n(-c3ccccc3F)n2)c1 (stereo not drawn) [Example 406]

IC50 [2]: 100 to 1000 nM
SMILES: O=C(O)C[C@H](NC(=O)c1cc(O)n(-c2ccc(Cl)cc2)n1)c1ccc(Cl)cc1 [Example 296]

IC50 [2]: 1000 to 30000 nM
SMILES: O=C(O)CC(NC(=O)c1cc(O)n(-c2ccccc2)n1)c1ccc(F)cc1 (stereo not drawn) [Example 61]

IC50 [4]: < 100 nM
SMILES: O=C(O)C[C@@H](NC(=O)c1cc(O)n(-c2ccccc2Cl)n1)c1ccc(-c2ccc(F)cc2)cc1 [Example 149]

IC50 [1]: 100 to 1000 nM | IC50 [5]: 635 nM
SMILES: O=C(O)CC(NC(=O)c1cc(O)n(-c2ccccc2F)n1)c1ccc(-n2cncn2)cc1 (stereo not drawn) [Example 550, 3-{[1-(2-Fluoro-phenyl)-5-hydroxy-1H-pyrazole-3-carbonyl]-amino}-3-(4-[1,2,4]triazol-1-yl-phenyl)-propionic acid]

IC50 [4]: 100 to 1000 nM
SMILES: O=C(O)CC(NC(=O)c1cc(O)n(-c2ccccc2F)n1)c1cccc(C(F)(F)F)c1Cl (stereo not drawn) [Example 245]

IC50 [3]: < 100 nM
SMILES: Cc1ccccc1-n1nc(C(=O)NC(CC(=O)O)c2ccc(-c3ccc(F)cc3)cc2)cc1O (stereo not drawn) [Example 536]

IC50 [1]: 100 to 1000 nM
SMILES: O=C(O)C[C@H](NC(=O)c1cc(OCC2CC2)n(-c2ccccc2F)n1)c1ccc(Cl)cc1 [Example 691]

IC50 [2]: 100 to 1000 nM
SMILES: O=C(O)C[C@H](NC(=O)c1cc(O)n(-c2ccc(F)cc2)n1)c1cccc(C(F)(F)F)c1 [Example 355]

IC50 [3]: 100 to 1000 nM
SMILES: O=C(O)CC(NC(=O)c1cc(O)n(-c2ccccc2F)n1)c1cc(F)ccc1F (stereo not drawn) [Example 517]
